Data on 18 compounds can be found in patent US20230133580A1, “MENTHOL-CONTAINING COMPOSITION” (SUNSHO PHARMACEUTICAL CO., LTD., priority 2020, published 2023).

Counter-ions that a name gives are not always drawn.

A short description of data set [1]: l-Menthol dissolution test. The format is physicochemical. To be noted: for Dissolution: stored at 20° C. Here is the method:
The solution was stored at 20° C. and evaluated based on the time during which the solution was maintained in a liquid state without solidifying.
A sample that solidified before being cooled down to 20° C. [e.g., during the process of cooling down to a temperature below the melting point of l-menthol (generally 42 to 45° C.)] or immediately (e.g., within 30 minutes) after being stored at 20° C. was rated D. A sample that was maintained as a solution for a while (e.g., more than 30 minutes) but solidified in less than 24 hours was rated C.

A short description of data set [2]: Encapsulation test C (interfacial tension against purified water). The format is physicochemical. The conditions noted are these: against purified water. How it is done: The interfacial tension was measured with the force tensiometer SIGMA 702 (KSV Instruments LTD).
The mark [3] stands for this setting: menthol concentration ranging 70 to 50 wt %.
Setting [4] is: menthol concentration ranging 60 to 50 wt %.

For `CCOCCOCC` [1,2-Diethoxyethane], the Dissolution result in data set [1] (l-Menthol 50, solvent 50 pbw) was “A (A sample that did not solidify in 10 days or more was rated A)”; in data set [1] (l-Menthol 60, solvent 40 pbw), “A (A sample that did not solidify in 10 days or more was rated A)”; in data set [1] (l-Menthol 70, solvent 30 pbw), “A (A sample that did not solidify in 10 days or more was rated A)”. For the same compound, in data set [1] (setting [3]), the “ability to dissolve menthol (rating)” value was “A (A sample that did not solidify in 10 days or more was rated A)”.
Turning to `CC(=O)OCCCCCCOC(C)=O` [1,6-Diacetoxyhexane], the Dissolution result in data set [1] (l-Menthol 50, solvent 50 pbw) is listed as “A (A sample that did not solidify in 10 days or more was rated A)”; in data set [1] (l-Menthol 60, solvent 40 pbw), “A (A sample that did not solidify in 10 days or more was rated A)”; in data set [1] (l-Menthol 70, solvent 30 pbw) it was “C (A sample that was maintained as a solution for a while (e.g., more than 30 minutes) but solidified in less than 24 hours was rated C)”. In data set [1] (setting [4]), the “ability to dissolve menthol (rating)” value is given as “A (A sample that did not solidify in 10 days or more was rated A)”.
`CC(=O)OCCCCCCCCOC(C)=O` [1,8-Diacetoxyoctane]: the Dissolution result in data set [1] (l-Menthol 50, solvent 50 pbw) was “A (A sample that did not solidify in 10 days or more was rated A)”; in data set [1] (l-Menthol 60, solvent 40 pbw), “C (A sample that was maintained as a solution for a while (e.g., more than 30 minutes) but solidified in less than 24 hours was rated C)”; in data set [1] (l-Menthol 70, solvent 30 pbw), “C (A sample that was maintained as a solution for a while (e.g., more than 30 minutes) but solidified in less than 24 hours was rated C)”. Moreover, the “ability to dissolve menthol (rating)” value in data set [1] (menthol concentration of 50%) was “A (A sample that did not solidify in 10 days or more was rated A)”.
In the case of `OCc1ccccc1` [Benzyl alcohol], the Dissolution result in data set [1] (l-Menthol 80, solvent 20 pbw) is given as “A (A sample that did not solidify in 10 days or more was rated A)”.
Consider `O=C(OCc1ccccc1)c1ccccc1` [Benzyl benzoate], for which the Dissolution entry in data set [1] (l-Menthol 50, solvent 50 pbw) was “B (A sample that solidified in 24 hours or more but less than 10 days was rated B)”; in data set [1] (l-Menthol 60, solvent 40 pbw), “C (A sample that was maintained as a solution for a while (e.g., more than 30 minutes) but solidified in less than 24 hours was rated C)”; in data set [1] (l-Menthol 70, solvent 30 pbw), “C (A sample that was maintained as a solution for a while (e.g., more than 30 minutes) but solidified in less than 24 hours was rated C)”. Further, the “ability to dissolve menthol (rating)” value in data set [1] (menthol concentration of 50%) is “B (A sample that solidified in 24 hours or more but less than 10 days was rated B)”.
For the compound `CCOC(=O)/C=C/C(=O)OCC` [Diethyl fumarate], the Dissolution result in data set [1] (l-Menthol 50, solvent 50 pbw) is reported as “A (A sample that did not solidify in 10 days or more was rated A)”; in data set [1] (l-Menthol 60, solvent 40 pbw) it was “A (A sample that did not solidify in 10 days or more was rated A)”; in data set [1] (l-Menthol 70, solvent 30 pbw), “C (A sample that was maintained as a solution for a while (e.g., more than 30 minutes) but solidified in less than 24 hours was rated C)”. Further, the “ability to dissolve menthol (rating)” value in data set [1] (setting [4]) is on record as “A (A sample that did not solidify in 10 days or more was rated A)”.
`CCOC(=O)CC(=O)OCC` [Diethyl malonate]: the interfacial tension in data set [2] (samples containing 80 to 50 wt % l-menthol) was not below 5 mN/m. Further, the Dissolution entry in data set [1] (l-Menthol 50, solvent 50 pbw) was “B (A sample that solidified in 24 hours or more but less than 10 days was rated B)”; in data set [1] (l-Menthol 60, solvent 40 pbw) it was “B (A sample that solidified in 24 hours or more but less than 10 days was rated B)”; in data set [1] (l-Menthol 70, solvent 30 pbw) it was “B (A sample that solidified in 24 hours or more but less than 10 days was rated B)”; in data set [1] (l-Menthol 80, solvent 20 pbw), “B (A sample that solidified in 24 hours or more but less than 10 days was rated B)”. Further, the “ability to dissolve menthol (rating)” value in data set [1] (regardless of the menthol concentration) is “B (A sample that solidified in 24 hours or more but less than 10 days was rated B)”.
As for `CCOC(=O)CCCCCCCCC(=O)OCC` [Diethyl sebacate], the interfacial tension in data set [2] (samples containing 70 to 50 wt % l-menthol) was not below 5 mN/m. Also, the Dissolution result in data set [1] (l-Menthol 50, solvent 50 pbw) was “A (A sample that did not solidify in 10 days or more was rated A)”; in data set [1] (l-Menthol 60, solvent 40 pbw), “A (A sample that did not solidify in 10 days or more was rated A)”; in data set [1] (l-Menthol 70, solvent 30 pbw), “A (A sample that did not solidify in 10 days or more was rated A)”; in data set [1] (l-Menthol 80, solvent 20 pbw), “C (A sample that was maintained as a solution for a while (e.g., more than 30 minutes) but solidified in less than 24 hours was rated C)”. In data set [1] (setting [3]), the “ability to dissolve menthol (rating)” value is on record as “A (A sample that did not solidify in 10 days or more was rated A)”.
Turning to `CCCCOCCOCCOCCCC` [Diethylene glycol dibutyl ether], the Dissolution result in data set [1] (l-Menthol 50, solvent 50 pbw) was “A (A sample that did not solidify in 10 days or more was rated A)”; in data set [1] (l-Menthol 60, solvent 40 pbw) it was “A (A sample that did not solidify in 10 days or more was rated A)”; in data set [1] (l-Menthol 70, solvent 30 pbw) it was “C (A sample that was maintained as a solution for a while (e.g., more than 30 minutes) but solidified in less than 24 hours was rated C)”. The “ability to dissolve menthol (rating)” value in data set [1] (setting [4]) is on record as “A (A sample that did not solidify in 10 days or more was rated A)”.
On to `CC(C)COC(=O)CCCCC(=O)OCC(C)C` [Diisobutyl adipate], for which the Dissolution result in data set [1] (l-Menthol 50, solvent 50 pbw) is listed as “A (A sample that did not solidify in 10 days or more was rated A)”; in data set [1] (l-Menthol 60, solvent 40 pbw), “A (A sample that did not solidify in 10 days or more was rated A)”; in data set [1] (l-Menthol 70, solvent 30 pbw), “A (A sample that did not solidify in 10 days or more was rated A)”; in data set [1] (l-Menthol 80, solvent 20 pbw), “C (A sample that was maintained as a solution for a while (e.g., more than 30 minutes) but solidified in less than 24 hours was rated C)”. Also, the “ability to dissolve menthol (rating)” value in data set [1] (setting [3]) is “A (A sample that did not solidify in 10 days or more was rated A)”.
Turning to `CCCCCCCCCC(=O)OCC` [Ethyl decanoate], the Dissolution result in data set [1] (l-Menthol 50, solvent 50 pbw) is listed as “A (A sample that did not solidify in 10 days or more was rated A)”; in data set [1] (l-Menthol 60, solvent 40 pbw) it was “A (A sample that did not solidify in 10 days or more was rated A)”; in data set [1] (l-Menthol 70, solvent 30 pbw), “C (A sample that was maintained as a solution for a while (e.g., more than 30 minutes) but solidified in less than 24 hours was rated C)”. Besides, the “ability to dissolve menthol (rating)” value in data set [1] (setting [4]) is reported as “A (A sample that did not solidify in 10 days or more was rated A)”.
For the compound `CCCCCCCCCCCC(=O)OCC` [Ethyl laurate], the Dissolution entry is “A (A sample that did not solidify in 10 days or more was rated A)” in data set [1] (l-Menthol 50, solvent 50 pbw); “A (A sample that did not solidify in 10 days or more was rated A)” in data set [1] (l-Menthol 60, solvent 40 pbw); “C (A sample that was maintained as a solution for a while (e.g., more than 30 minutes) but solidified in less than 24 hours was rated C)” in data set [1] (l-Menthol 70, solvent 30 pbw). The “ability to dissolve menthol (rating)” value in data set [1] (setting [4]) was “A (A sample that did not solidify in 10 days or more was rated A)”.
Consider `CCCCCCCCCCCCCCCC(=O)OCC` [Ethyl palmitate], for which the Dissolution entry in data set [1] (l-Menthol 50, solvent 50 pbw) is given as “B (A sample that solidified in 24 hours or more but less than 10 days was rated B)”; in data set [1] (l-Menthol 60, solvent 40 pbw) it was “B (A sample that solidified in 24 hours or more but less than 10 days was rated B)”; in data set [1] (l-Menthol 70, solvent 30 pbw) it was “C (A sample that was maintained as a solution for a while (e.g., more than 30 minutes) but solidified in less than 24 hours was rated C)”. The “ability to dissolve menthol (rating)” value in data set [1] (setting [4]) was “B (A sample that solidified in 24 hours or more but less than 10 days was rated B)”.
For `CC(=O)OCCOC(C)=O` [Ethylene glycol diacetate], the Dissolution entry in data set [1] (l-Menthol 50, solvent 50 pbw) is on record as “C (A sample that was maintained as a solution for a while (e.g., more than 30 minutes) but solidified in less than 24 hours was rated C)”; in data set [1] (l-Menthol 60, solvent 40 pbw), “C (A sample that was maintained as a solution for a while (e.g., more than 30 minutes) but solidified in less than 24 hours was rated C)”; in data set [1] (l-Menthol 70, solvent 30 pbw) it was “C (A sample that was maintained as a solution for a while (e.g., more than 30 minutes) but solidified in less than 24 hours was rated C)”.
As to `CCCCOCCOCCCC` [Ethylene glycol dibutyl ether], the Dissolution result is on record as “A (A sample that did not solidify in 10 days or more was rated A)” in data set [1] (l-Menthol 50, solvent 50 pbw); “A (A sample that did not solidify in 10 days or more was rated A)” in data set [1] (l-Menthol 60, solvent 40 pbw); “A (A sample that did not solidify in 10 days or more was rated A)” in data set [1] (l-Menthol 70, solvent 30 pbw). Moreover, the “ability to dissolve menthol (rating)” value in data set [1] (setting [3]) was “A (A sample that did not solidify in 10 days or more was rated A)”.
Consider `CCNCCCCCCNCC` [N,N′-diethyl-1,6-hexanediamine], for which the Dissolution result is reported as “A (A sample that did not solidify in 10 days or more was rated A)” in data set [1] (l-Menthol 50, solvent 50 pbw); “A (A sample that did not solidify in 10 days or more was rated A)” in data set [1] (l-Menthol 60, solvent 40 pbw); “A (A sample that did not solidify in 10 days or more was rated A)” in data set [1] (l-Menthol 70, solvent 30 pbw). Moreover, the “ability to dissolve menthol (rating)” value in data set [1] (setting [3]) is on record as “A (A sample that did not solidify in 10 days or more was rated A)”.
For the compound `CCCC(=O)OCC(COC(=O)CCC)OC(=O)CCC` [Tributyrin], the Dissolution result in data set [1] (l-Menthol 50, solvent 50 pbw) is on record as “B (A sample that solidified in 24 hours or more but less than 10 days was rated B)”; in data set [1] (l-Menthol 60, solvent 40 pbw), “C (A sample that was maintained as a solution for a while (e.g., more than 30 minutes) but solidified in less than 24 hours was rated C)”; in data set [1] (l-Menthol 70, solvent 30 pbw), “C (A sample that was maintained as a solution for a while (e.g., more than 30 minutes) but solidified in less than 24 hours was rated C)”. Moreover, the “ability to dissolve menthol (rating)” value in data set [1] (menthol concentration of 50%) is given as “B (A sample that solidified in 24 hours or more but less than 10 days was rated B)”.
Consider `CCOC(=O)CC(O)(CC(=O)OCC)C(=O)OCC` [Triethyl citrate], for which the Dissolution entry in data set [1] (l-Menthol 50, solvent 50 pbw) is “C (A sample that was maintained as a solution for a while (e.g., more than 30 minutes) but solidified in less than 24 hours was rated C)”; in data set [1] (l-Menthol 60, solvent 40 pbw), “C (A sample that was maintained as a solution for a while (e.g., more than 30 minutes) but solidified in less than 24 hours was rated C)”; in data set [1] (l-Menthol 70, solvent 30 pbw) it was “C (A sample that was maintained as a solution for a while (e.g., more than 30 minutes) but solidified in less than 24 hours was rated C)”.
